Experiment: Neurotoxicity against human neuroblastoma SH-SY5Y cells using MTT dye conversion assay

| Structure (SMILES) | CC50 [µM] |
| --- | --- |
| CC1NCCc2c(O)cccc21 (stereo not drawn) | 3380 |
| COc1cc2c(cc1OC)C(C)NCC2 (stereo not drawn) | 2730 |
| CC1NCCc2ccc(O)cc21 (stereo not drawn) | 4150 |
| CC1NCCc2cc(O)c(O)cc21 (stereo not drawn) | 34 |
| COc1ccc2c(c1)CCNC2C (stereo not drawn) | 2790 |
| CC1NCCc2cc(O)ccc21 (stereo not drawn) | 3630 |
| COc1ccc2c(c1)C(C)NCC2 (stereo not drawn) | 1390 |
| COc1cccc2c1CCNC2C (stereo not drawn) | 2450 |
